The source of these data is US8859534B2, “2-carboxamide-7-piperazinyl-benzofuran derivatives” (AstraZeneca AB, priority 2009, dated 2014).

The target in experiment [1] is 5-HT1A receptor (Homo sapiens (Human), UniProt P08908). The experiment can be described thus: 5-HT1A receptor competition binding assay (SPA, [3H]-8-OH-DPAT). Conditions: membranes of CHO cells expressing 5-HT1A receptors; radioligand [3H]-8-OH-DPAT 0.15-0.2 nM. The text has this: (§1) Assays that were used to measure affinity of the compounds of the present invention for 5-HT1A and 5-HT1B receptors are described in J. Recept Signal Transduct. Res. 22:483-495 (2002) and Naunyn-Schmiedeberg's Arch Pharmacol. 356:328-334 (1997) and incorporated by reference herein. These assays were be used with some modifications:
(§2) For the binding assay stably transfected chinese hamster ovary (CHO) cell lines expressing 5-HT1A receptors or 5-HT1B receptors were harvested by centrifugation at 300×g for 10 min and resuspended in 10 mM Tris-HCl, 5 mM EDTA at pH 7.4. The cells were pooled, recentrifuged and resuspended before homogenisation using a Dounce homogeniser (“type B”). Cell membranes were centrifuged at 48 000×g for 10 min and then resuspended in harvesting buffer using an Ultra-Turrax T8 (IKA Labortechnik, Germany), aliquots were stored frozen in −70° C.
Frozen membrane preparations were thawed, homogenized with an Ultra-Turrax and mixed with SPA beads (YSI coated WGA, GE Healthcare/Amersham, Buckinghamshire, UK) in assay buffer containing 50 mM Tris-Base, 4 mM MgCl2, 4 mM CaCl2 (only 5-HT1B), 1 mM EDTA, and adjusted to pH 7.4 with HCl. […] The binding assays were performed in 384-well plates in a final volume of 90 μL/well with the following additions: 9 μL binding buffer; 1 μL compound/DMSO/nonspecific; 20 μL radioligand; and 60 μL beads/membrane mixture. Non-specific binding was defined by using 10 μM WAY100635 for 5-HT1A and 10 μM Methiothepin for 5-HT1B. The assay plates were incubated for 4 hours where after the plates are counted in a Wallac 1450 Microbeta Trilux counter (PerkinElmer LifeScience, US) or similar. Data from the experiments were analyzed using a four parameter logistic equation as follows: Y=Bottom+(Top-Bottom)/1+10^(LogEC50-X)nH.

For experiment [2], the target named is 5-HT1B receptor (Homo sapiens (Human), UniProt P28222). The experiment can be described thus: 5-HT1B receptor competition binding assay (SPA, [3H]-GR125743). The note with it: membranes of CHO cells expressing 5-HT1B receptors; radioligand [3H]-GR125743 0.15-0.2 nM.
Chain of 5-HT1B receptor (P28222 whole entry): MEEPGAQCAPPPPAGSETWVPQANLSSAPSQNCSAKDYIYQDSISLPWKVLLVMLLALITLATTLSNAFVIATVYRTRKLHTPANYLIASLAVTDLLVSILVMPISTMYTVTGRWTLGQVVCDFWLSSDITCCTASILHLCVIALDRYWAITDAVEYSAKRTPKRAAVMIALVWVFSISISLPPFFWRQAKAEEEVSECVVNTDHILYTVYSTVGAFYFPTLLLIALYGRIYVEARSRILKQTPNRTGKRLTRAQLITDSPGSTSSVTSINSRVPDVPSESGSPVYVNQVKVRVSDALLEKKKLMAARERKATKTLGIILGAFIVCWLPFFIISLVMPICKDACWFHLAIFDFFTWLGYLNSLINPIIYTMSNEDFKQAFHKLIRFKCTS
Text: as §1, §2
Frozen membrane preparations were thawed, homogenized with an Ultra-Turrax and mixed with SPA beads (YSI coated WGA, GE Healthcare/Amersham, Buckinghamshire, UK) in assay buffer containing 50 mM Tris-Base, 4 mM MgCl2, 4 mM CaCl2 (only 5-HT1B), 1 mM EDTA, and adjusted to pH 7.4 with HCl. The beads/membrane solution, final concentration 100 pM receptors for 5-HT1A, 300 pM receptors for 5-HT1B and 0.5 mg SPA beads/well, was pre-incubated in room temperature with stirring for 30-60 min. […] Five (log interval, 10 μM to 1 nM, final concentration) or ten serial dilutions (½-log interval, 10 μM to 0.32 nM, final concentration) of compounds were prepared in DMSO from 10 mM stock solutions. The binding assays were performed in 384-well plates in a final volume of 90 μL/well with the following additions: 9 μL binding buffer; 1 μL compound/DMSO/nonspecific; 20 μL radioligand; and 60 μL beads/membrane mixture. Non-specific binding was defined by using 10 μM WAY100635 for 5-HT1A and 10 μM Methiothepin for 5-HT1B. The assay plates were incubated for 4 hours where after the plates are counted in a Wallac 1450 Microbeta Trilux counter (PerkinElmer LifeScience, US) or similar. Data from the experiments were analyzed using a four parameter logistic equation as follows: Y=Bottom+(Top-Bottom)/1+10^(LogEC50-X)nH.
• Jerning E., Rosqvist S., Mohell N. (2002) NAD-299 antagonises 5-HT-stimulated and Spiperone-inhibited [^35S]GTPγS binding in cloned 5-HT1A receptors. J Recept Signal Transduct Res 22:483-495. • Doménech T., Beleta J., Palacios J. M. (1997) Characterization of human serotonin 1D and 1B receptors using [^3H]-GR-125743, a novel radiolabelled serotonin 5HT1D/1B receptor antagonist. Naunyn-Schmiedeberg's Arch Pharmacol 356:328-334.

Chain of 5-HT1A receptor (P08908 whole entry): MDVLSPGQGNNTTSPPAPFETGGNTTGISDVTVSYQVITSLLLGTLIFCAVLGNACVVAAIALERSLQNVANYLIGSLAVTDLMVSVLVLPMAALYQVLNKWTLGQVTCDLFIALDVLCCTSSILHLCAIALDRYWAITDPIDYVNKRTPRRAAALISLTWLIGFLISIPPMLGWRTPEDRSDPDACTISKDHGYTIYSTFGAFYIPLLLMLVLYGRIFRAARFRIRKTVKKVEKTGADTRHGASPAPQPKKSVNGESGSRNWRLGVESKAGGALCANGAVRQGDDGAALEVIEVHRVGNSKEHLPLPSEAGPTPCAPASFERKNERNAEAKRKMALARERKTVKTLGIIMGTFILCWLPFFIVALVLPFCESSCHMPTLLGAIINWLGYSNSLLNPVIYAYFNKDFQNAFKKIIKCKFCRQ

As to `O=C(NCc1cccc(O)c1)c1cc2cccc(N3CCN(CCc4ccccn4)CC3)c2o1` [Example 37, N-(3-Hydroxybenzyl)-7-(4-(2-(pyridin-2-yl)ethyl)piperazin-1-yl)benzofuran-2-carboxamide], the inhibition constant (Ki) – broadly, a measure of affinity in units of concentration, obtained from inhibition or displacement – came to 0.23 nM in experiment [1] and 3.5 nM in experiment [2].

`CS(=O)(=O)Cc1ccc(CNC(=O)c2cc3cccc(N4CCN(CCc5ccccn5)CC4)c3o2)cc1` [Example 17, N-(4-(Methylsulfonylmethyl)benzyl)-7-(4-(2-(pyridin-2-yl)ethyl)piperazin-1-yl)benzofuran-2-carboxamide]: the inhibition constant Ki in experiment [1] turned out to be 2 nM; in experiment [2] it was 3.3 nM.

`O=C(c1cc2cccc(N3CCN(CCc4ccccn4)CC3)c2o1)N1CC(Oc2cccnc2)C1` [Example 36, (7-(4-(2-(Pyridin-2-yl)ethyl)piperazin-1-yl)benzofuran-2-yl)(3-(pyridin-3-yloxy)azetidin-1-yl)methanone]: the Ki in experiment [1] turned out to be 1.9 nM; in experiment [2] it was 0.46 nM.

With `CC(=O)c1ccc(CCN2CCN(c3cccc4cc(C(=O)N(C)C)oc34)CC2)nc1` [Example 43, 7-(4-(2-(5-Acetylpyridin-2-yl)ethyl)piperazin-1-yl)-N,N-dimethylbenzofuran-2-carboxamide], the inhibition constant (Ki) in experiment [1] was determined as 0.33 nM; in experiment [2], 2 nM.

In the case of `O=C(NCc1cccnc1)c1cc2cccc(N3CCN(CCc4ccccn4)CC3)c2o1` [Example 35, 7-(4-(2-(Pyridin-2-yl)ethyl)piperazin-1-yl)-N-(pyridin-3-ylmethyl)benzofuran-2-carboxamide], the Ki in experiment [1] is 2 nM; in experiment [2] it was 34 nM.

For the compound `O=C(c1cc2cccc(N3CCN(CCc4ccccn4)CC3)c2o1)N1CCC1` [Example 15, Azetidin-1-yl(7-(4-(2-(pyridin-2-yl)ethyl)piperazin-1-yl)benzofuran-2-yl)methanone], the Ki in experiment [1] came to 1.4 nM; in experiment [2] it was 16 nM.

`O=C(NC1CCN(c2ccccc2)CC1)c1cc2cccc(N3CCN(CCc4ccccn4)CC3)c2o1` [Example 3, N-(1-Phenylpiperidin-4-yl)-7-(4-(2-(pyridin-2-yl)ethyl)piperazin-1-yl)benzofuran-2-carboxamide]: the Ki in experiment [1] turned out to be 0.14 nM; in experiment [2], 0.52 nM.

Take `CN(Cc1cccnc1)C(=O)c1cc2cccc(N3CCN(CCc4ccccn4)CC3)c2o1` [Example 21, N-Methyl-7-(4-(2-(pyridin-2-yl)ethyl)piperazin-1-yl)-N-(pyridin-3-ylmethyl)benzofuran-2-carboxamide]: the Ki is 2.6 nM in experiment [1] and 63 nM in experiment [2].

For `CC(NC(=O)c1cc2cccc(N3CCN(CCc4ccccn4)CC3)c2o1)c1ccnn1C` (stereo not shown) [Example 32, N-(1-(1-Methyl-1H-pyrazol-5-yl)ethyl)-7-(4-(2-(pyridin-2-yl)ethyl)piperazin-1-yl)benzofuran-2-carboxamide], the Ki in experiment [1] turned out to be 12 nM; in experiment [2], 280 nM.

In the case of `COc1ccc(CNC(=O)c2cc3cccc(N4CCN(CCc5ccccn5)CC4)c3o2)cc1` [Example 28, N-(4-Methoxybenzyl)-7-(4-(2-(pyridin-2-yl)ethyl)piperazin-1-yl)benzofuran-2-carboxamide], the values for the Ki in experiment [1] and in experiment [2] were 0.85 nM and 1 nM, respectively.

Consider `Cc1ccnc(CCNC(=O)c2cc3cccc(N4CCN(CCc5ccccn5)CC4)c3o2)n1` [Example 29, N-(2-(4-Methylpyrimidin-2-yl)ethyl)-7-(4-(2-(pyridin-2-yl)ethyl)piperazin-1-yl)benzofuran-2-carboxamide], for which the results for the Ki in experiment [1] and in experiment [2] were 2 nM and 19 nM, respectively.

With `CN(C)C(=O)c1cc2cccc(N3CCN(CCc4cccc(C(F)(F)F)n4)CC3)c2o1` [Example 42, N,N-dimethyl-7-(4-(2-(6-(trifluoromethyl)pyridin-2-yl)ethyl)piperazin-1-yl)benzofuran-2-carboxamide], the Ki turned out to be 0.64 nM in experiment [1] and 7 nM in experiment [2].

Regarding `CN(Cc1ccccn1)C(=O)c1cc2cccc(N3CCN(CCc4ccccn4)CC3)c2o1` [Example 25, N-Methyl-7-(4-(2-(pyridin-2-yl)ethyl)piperazin-1-yl)-N-(pyridin-2-ylmethyl)benzofuran-2-carboxamide], the inhibition constant (Ki) in experiment [1] turned out to be 2.9 nM; in experiment [2] it was 31 nM.

Consider `CN(Cc1cccc(S(C)(=O)=O)c1)C(=O)c1cc2cccc(N3CCN(CCc4ccccn4)CC3)c2o1` [Example 19, N-Methyl-N-(3-(methylsulfonyl)benzyl)-7-(4-(2-(pyridin-2-yl)ethyl)piperazin-1-yl)benzofuran-2-carboxamide], for which the inhibitory constant (Ki) in experiment [1] is 0.99 nM; in experiment [2] it was 10 nM.

`CC(=O)Nc1ccc(CCN2CCN(c3cccc4cc(C(=O)N(C)C)oc34)CC2)nc1` [Example 44, 7-(4-(2-(5-Acetamidopyridin-2-yl)ethyl)piperazin-1-yl)-N,N-dimethylbenzofuran-2-carboxamide]: the inhibition constant Ki is 3.7 nM in experiment [1] and 20 nM in experiment [2].

For the compound `O=C(c1cc2cccc(N3CCN(CCc4ccccn4)CC3)c2o1)N1CCN(c2nccs2)CC1` [Example 23, (7-(4-(2-(Pyridin-2-yl)ethyl)piperazin-1-yl)benzofuran-2-yl)(4-(thiazol-2-yl)piperazin-1-yl)methanone], the Ki was found to be 4.2 nM in experiment [1] and 1.4 nM in experiment [2].

With `CC(=O)N1CCc2cc(CCN3CCN(c4cc(F)cc5cc(C(=O)N(C)C)oc45)CC3)ccc21` [Example 51, 7-(4-(2-(1-Acetylindolin-5-yl)ethyl)piperazin-1-yl)-5-fluoro-N,N-dimethylbenzofuran-2-carboxamide], the figures for the Ki in experiment [1] and in experiment [2] were 0.23 nM and 5 nM, respectively.

For the compound `CN(C)C(=O)c1cc2cc(F)cc(N3CCN(CCc4ccccn4)CC3)c2o1` [Example 50, 5-Fluoro-N,N-dimethyl-7-(4-(2-(pyridin-2-yl)ethyl)piperazin-1-yl)benzofuran-2-carboxamide], the figures for the inhibition constant (Ki) in experiment [1] and in experiment [2] were 0.43 nM and 8.2 nM, respectively.

Regarding `N#Cc1cccc(CNC(=O)c2cc3cccc(N4CCN(CCc5ccccn5)CC4)c3o2)c1` [Example 22, N-(3-Cyanobenzyl)-7-(4-(2-(pyridin-2-yl)ethyl)piperazin-1-yl)benzofuran-2-carboxamide], the values for the Ki in experiment [1] and in experiment [2] were 0.91 nM and 9.1 nM, respectively.

Consider `O=C(NCc1ccccn1)c1cc2cccc(N3CCN(CCc4ccccn4)CC3)c2o1` [Example 1, 7-(4-(2-(Pyridin-2-yl)ethyl)piperazin-1-yl)-N-(pyridin-2-ylmethyl)benzofuran-2-carboxamide], for which the Ki in experiment [1] worked out at 1.3 nM; in experiment [2] it was 19 nM.

In the case of `O=C(NCC1CCOCC1)c1cc2cccc(N3CCN(CCc4ccccn4)CC3)c2o1` [Example 31, 7-(4-(2-(Pyridin-2-yl)ethyl)piperazin-1-yl)-N-((tetrahydro-2H-pyran-4-yl)methyl)benzofuran-2-carboxamide], the inhibition constant Ki in experiment [1] is 1.5 nM; in experiment [2], 50 nM.

Consider `CN(C)C(=O)c1cc2cccc(N3CCN(CCc4ccc(F)cn4)CC3)c2o1` [Example 47, 7-(4-(2-(5-Fluoropyridin-2-yl)ethyl)piperazin-1-yl)-N,N-dimethylbenzofuran-2-carboxamide], for which the inhibition constant Ki in experiment [1] stood at 0.22 nM; in experiment [2], 19 nM.

In the case of `COc1cccc(CNC(=O)c2cc3cccc(N4CCN(CCc5ccccn5)CC4)c3o2)c1` [Example 26, N-(3-Methoxybenzyl)-7-(4-(2-(pyridin-2-yl)ethyl)piperazin-1-yl)benzofuran-2-carboxamide], the results for the inhibitory constant (Ki) in experiment [1] and in experiment [2] were 0.91 nM and 2.3 nM, respectively.
